Broadly, the Ki is the dissociation constant of the complex between target and ligand, obtained from inhibition or displacement. By IC50 is commonly meant the concentration needed to halve the response being measured. In general, inhibition in vivo refers to the percentage by which the read-out fell short of the control. A word on the half-life: it is the time in which the quantity being followed falls by half.

Series [1] has as its target T1, Cannabinoid receptor 1 (Homo sapiens, UniProt P21554). Nature of the series: Displacement of [3H]- CP55940 from human CB1R expressed in CHO-K1 cells membrane by Cheng-Prusoff equation analysis. It is filed as cell membranes, Cell membrane. To be noted: read-out: Ki. Background: Loss of bound radioactivity is the signal in a displacement assay; it reports binding, not function.

Series [2] addresses T1, Cannabinoid receptor 1. The series can be described thus: Antagonist activity at human CB1R expressed in CHO-K1 cell membranes assessed as stimulation of [35S]-GTPgammaS binding by liquid scintillation counting method. In kind it is functional, Cell membrane. To be noted: read-out: IC50. For orientation: GTPγS resists hydrolysis and so accumulates on activated G proteins.

A further series addresses Cannabinoid receptor 2 (Homo sapiens, UniProt P34972). Nature of the series: Displacement of [3H]- CP55940 from human CB2R expressed in CHO-K1 cells membrane by Cheng-Prusoff equation analysis. In kind it is cell membranes, Cell membrane. As to conditions: read-out: Ki.
For series [3], the system named is Mus musculus. Nature of the series: Anti-obesity activity in high fat diet-induced obese C57BL/6J mouse assessed as reduction in body weight at 10 mg/kg, ip measured every daily for 1 weeks. It is filed as functional. As to conditions: 168 h.
Series [4] in a line: Microsomal stability in C57BL/6J mouse liver microsomes assessed as half life at 3 mg/kg, ip by LC-MS/MS analysis. It is filed as ADME, Microsome. For orientation: Liver microsomes are a subcellular fraction often used to study metabolism.
Series [5] can be described thus: Stability in C57BL/6J mouse plasma assessed as half life at 3 mg/kg, ip by LC-MS/MS analysis. In kind it is ADME, organism-based.
Series [6] concerns Mus musculus. The series can be described thus: Anti-obesity activity in high fat diet-induced obese C57BL/6J mouse assessed as reduction in food intake at 10 mg/kg, ip measured every daily for 1 weeks. In kind it is functional, organism-based.
Series [7] concerns the target T1, Cannabinoid receptor 1. The series can be described thus: Inverse agonist activity at human CB1R expressed in CHO-K1 cell membrane assessed as […] in [35S]GTPgammaS binding. In kind it is functional, cell membranes.
The nature of series [8]: Protein binding in mouse plasma assessed as […] at 5 uM and incubated for 4 hrs by LC-MS/MS analysis. To be noted: read-out: PPB. In kind it is ADME, cell-free.
Series [9] can be described thus: Protein binding in human plasma assessed as […] at 5 uM for 4 hrs by LC-MS/MS analysis. In kind it is ADME, cell-free. As to conditions: read-out: PPB.
The nature of series [10]: Microsomal stability in human liver microsomes assessed as half life at 3 mg/kg, ip by LC-MS/MS analysis. In kind it is ADME, Microsome.
For series [11], the system named is Mus musculus. The series can be described thus: Anti-obesity activity in high fat diet-induced obese C57BL/6J mouse assessed as reduction in food intake at 3 mg/kg, ip dosed daily for 1 week. In kind it is functional, organism-based. As to conditions: time 1.0 weeks.
The subject of series [12] is Mus musculus. The series can be described thus: Anti-obesity activity in high fat diet-induced obese C57BL/6J mouse assessed as reduction in body weight at 3 mg/kg, ip dosed daily for 1 week. It is filed as functional. As to conditions: 168 h, time 1 weeks.

Active and inactive are the calls of the source. The calls are words filed in the database; no cut-off is given here.

T1 sequence (P21554 whole entry): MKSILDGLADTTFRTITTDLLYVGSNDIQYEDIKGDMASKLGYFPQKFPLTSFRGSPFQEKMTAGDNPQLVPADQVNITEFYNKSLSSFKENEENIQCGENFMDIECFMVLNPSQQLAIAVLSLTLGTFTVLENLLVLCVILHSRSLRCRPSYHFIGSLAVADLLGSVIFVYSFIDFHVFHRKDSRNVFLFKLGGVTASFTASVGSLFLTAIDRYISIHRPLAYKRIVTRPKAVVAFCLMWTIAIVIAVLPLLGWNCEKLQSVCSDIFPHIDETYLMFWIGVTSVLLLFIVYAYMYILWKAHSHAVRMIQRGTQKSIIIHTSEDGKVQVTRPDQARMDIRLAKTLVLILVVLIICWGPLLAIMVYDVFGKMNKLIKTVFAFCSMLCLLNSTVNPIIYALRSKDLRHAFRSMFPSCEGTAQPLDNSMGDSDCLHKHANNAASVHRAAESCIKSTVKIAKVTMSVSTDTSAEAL
Chain of Cannabinoid receptor 2 (P34972 whole entry): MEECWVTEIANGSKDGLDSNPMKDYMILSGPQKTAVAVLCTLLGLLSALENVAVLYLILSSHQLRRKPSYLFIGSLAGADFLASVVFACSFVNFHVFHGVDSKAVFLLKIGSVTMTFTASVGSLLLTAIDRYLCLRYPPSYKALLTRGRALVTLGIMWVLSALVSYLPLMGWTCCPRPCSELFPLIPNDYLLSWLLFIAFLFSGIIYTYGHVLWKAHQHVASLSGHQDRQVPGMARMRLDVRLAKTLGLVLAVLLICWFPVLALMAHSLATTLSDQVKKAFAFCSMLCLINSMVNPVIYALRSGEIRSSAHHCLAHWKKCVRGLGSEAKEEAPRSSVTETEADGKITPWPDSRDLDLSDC

Take `CCN(CC)S(=O)(=O)/N=C(/N=C(/C)N)N1C[C@H](c2ccccc2)C(c2ccc(Cl)cc2)=N1`: the Ki was 1.2 nM at Cannabinoid receptor 1 [1] and 66 nM at Cannabinoid receptor 2. In addition, the values for the IC50 on Cannabinoid receptor 1 [2] and at Cannabinoid receptor 1 [7] were 1.2 nM and 0.8 nM, respectively. Moreover, the inhibition in vivo at 10 mg/kg in the series on Mus musculus [3] turned out to be 8%. Besides, the half-life in [4] is above 2 min; in series [5], below 120 min; in series [10], above 2 min. For the same compound, the outcome with Mus musculus [6] was Active. In addition, the fraction unbound at 4 h, 5 µM in [8] and in [9] was at most 0.006 throughout.
Turning to `C/C(N)=N\C(=N\S(=O)(=O)N1CCCCC1)N1C[C@H](c2ccccc2)C(c2ccc(Cl)cc2)=N1`, in the series with Mus musculus [11], the outcome was Active. In addition, the Ki turned out to be 1.6 nM at Cannabinoid receptor 1 [1] and 43 nM at Cannabinoid receptor 2. Also, the figures for the half-inhibitory concentration (IC50) at Cannabinoid receptor 1 [2] and on Cannabinoid receptor 1 [7] were 4 nM and 2 nM, respectively. The values for the half-life in [4], in [5] and in series [10] were above 2 min, below 120 min and above 2 min, respectively. For the same compound, the inhibition in vivo at 3 mg/kg in the series on Mus musculus [12] came to 8%. In addition, the fraction unbound at 4 h, 5 µM in series [8] and in series [9] was at most 0.006 each time.
Turning to `CS/C(N)=N/C(=N/S(=O)(=O)N1CCC(C(F)(F)F)CC1)N1C[C@H](c2ccccc2)C(c2ccc(Cl)cc2)=N1`, the inhibitory constant (Ki) at Cannabinoid receptor 1 [1] is 0.7 nM; at Cannabinoid receptor 2, 334 nM. The figures for the 50% inhibitory concentration (IC50) at Cannabinoid receptor 1 [2] and on Cannabinoid receptor 1 [7] were 2 nM and 1.6 nM, respectively. In addition, the inhibition in vivo at 10 mg/kg in the series on Mus musculus [3] amounted to 8%. The half-life in series [5] is below 120 min. In addition, the outcome with Mus musculus [6] was Active. The fraction unbound at 4 h, 5 µM in series [8] and in series [9] was at most 0.006 throughout.
